Results reported in US12583824B2 (Genzyme Corporation, priority 2019, dated 2026).

Biological target: T1, CFTR in primary human bronchial epithelial cells from a ΔF508 homozygous CF donor (CF-HBE cells) (Homo sapiens, UniProt P13569, DEL508-508)
T1 construct: Primary human bronchial epithelial cells from a ΔF508 homozygous CF donor; host or cells: primary human bronchial epithelial cells (CF-HBE), ΔF508 homozygous donor
Assay: TECC24 recording analysis of CFTR-mediated transepithelial chloride transport (AUC fold over DMSO)
Type: cell-based
Conditions: 3 μM test agent, CF-HBE cells cultured 48 hours at 36.5° C.; ratio of test agent AUC of forskolin-stimulated IEQ divided by vehicle (DMSO) AUC
Description: Example 31: TECC24 AUC Fold Over DMSO @ 3 μM
The effects of a test agent on CFTR-mediated transepithelial chloride transport was measured using TECC24 recording analysis. Test agents were solubilized in DMSO. Solubilized test agents were mixed with incubation medium containing DMEM/F12, Ultroser G (2%; Crescent Chemical, catalog #67042), Hyclone Fetal Clone II (2%; GE Healthcare, catalog #SH30066.02), bovine brain extract (0.25%; Lonza, catalog #CC-4098), insulin (2.5 μg/mL), IL-13 (10 ng/mL), hydrocortisone (20 nM), transferrin (2.5 μg/mL), triiodothyronine (500 nM), ethanolamine (250 nM), epinephrine (1.5 μM), phosphoethanolamine (250 nM), and retinoic acid (10 nM). Primary human bronchial epithelial cells from a ΔF508 homozygous CF donor (CF-HBE cells; from University of North Carolina Cystic Fibrosis Tissue Procurement Center), grown on Transwell HTS 24-well cell culture inserts (Costar, catalog #3378), were exposed to test agents or controls dissolved in incubation medium. The CF-HBE cells were cultured at 36.5° C. for 48 hours before TECC24 recordings were performed in the presence or absence of test agent, a positive control or vehicle (DMSO).
Following incubation, the transwell cell culture inserts containing the test agent or control-treated CF-HBE cells were loaded onto a TECC24 apparatus (TECC v7 or MTECC v2; EP Design) to record the transepithelial voltage (VT) and resistance (TEER) using 4 AgCl electrodes per well configured in current-clamp mode. The apical and basolateral bath solutions both contained (in mM) 140 NaCl, 5 KCl, 2 CaCl2), 1 MgCl2, 10 Hepes, and 10 glucose (adjusted to pH 7.4 with NaOH). To inhibit basal Na+ absorption, the ENaC inhibitor benzamil (10 μM) was added to the bath. Then, the adenylate cyclase activator, forskolin (10 μM), was added to the bath to activate CFTR. The forskolin-stimulated Cl-transport was halted by addition of bumetanide (20 μM), an inhibitor of the basolateral chloride co-transporter NKCC1, to the bath to confirm that the detected signal was chloride dependent. VT and TEER recordings were digitally acquired at routine intervals using TECC or MTECC software (EP Design). VT and TEER were transformed into equivalent transepithelial Cl-current (IEQ), and the Area Under the Curve (AUC) of the IEQ time course between forskolin and bumetanide addition is generated using Excel (Microsoft). Efficacy is expressed as the ratio of the test agent AUC divided by vehicle AUC. EC50s based on AUC are generated using the non-linear regression log(agonist) vs. response function in Prism software (GraphPad) with Hill Slope fixed=1.
If a test agent increased the AUC of the forskolin-stimulated IEQ relative to vehicle in CF-HBE cells, and this increase was inhibited by bumetanide, then the test agent was considered a CFTR corrector.

T1 sequence (P13569 with tags, fused parts or gaps DEL508-508): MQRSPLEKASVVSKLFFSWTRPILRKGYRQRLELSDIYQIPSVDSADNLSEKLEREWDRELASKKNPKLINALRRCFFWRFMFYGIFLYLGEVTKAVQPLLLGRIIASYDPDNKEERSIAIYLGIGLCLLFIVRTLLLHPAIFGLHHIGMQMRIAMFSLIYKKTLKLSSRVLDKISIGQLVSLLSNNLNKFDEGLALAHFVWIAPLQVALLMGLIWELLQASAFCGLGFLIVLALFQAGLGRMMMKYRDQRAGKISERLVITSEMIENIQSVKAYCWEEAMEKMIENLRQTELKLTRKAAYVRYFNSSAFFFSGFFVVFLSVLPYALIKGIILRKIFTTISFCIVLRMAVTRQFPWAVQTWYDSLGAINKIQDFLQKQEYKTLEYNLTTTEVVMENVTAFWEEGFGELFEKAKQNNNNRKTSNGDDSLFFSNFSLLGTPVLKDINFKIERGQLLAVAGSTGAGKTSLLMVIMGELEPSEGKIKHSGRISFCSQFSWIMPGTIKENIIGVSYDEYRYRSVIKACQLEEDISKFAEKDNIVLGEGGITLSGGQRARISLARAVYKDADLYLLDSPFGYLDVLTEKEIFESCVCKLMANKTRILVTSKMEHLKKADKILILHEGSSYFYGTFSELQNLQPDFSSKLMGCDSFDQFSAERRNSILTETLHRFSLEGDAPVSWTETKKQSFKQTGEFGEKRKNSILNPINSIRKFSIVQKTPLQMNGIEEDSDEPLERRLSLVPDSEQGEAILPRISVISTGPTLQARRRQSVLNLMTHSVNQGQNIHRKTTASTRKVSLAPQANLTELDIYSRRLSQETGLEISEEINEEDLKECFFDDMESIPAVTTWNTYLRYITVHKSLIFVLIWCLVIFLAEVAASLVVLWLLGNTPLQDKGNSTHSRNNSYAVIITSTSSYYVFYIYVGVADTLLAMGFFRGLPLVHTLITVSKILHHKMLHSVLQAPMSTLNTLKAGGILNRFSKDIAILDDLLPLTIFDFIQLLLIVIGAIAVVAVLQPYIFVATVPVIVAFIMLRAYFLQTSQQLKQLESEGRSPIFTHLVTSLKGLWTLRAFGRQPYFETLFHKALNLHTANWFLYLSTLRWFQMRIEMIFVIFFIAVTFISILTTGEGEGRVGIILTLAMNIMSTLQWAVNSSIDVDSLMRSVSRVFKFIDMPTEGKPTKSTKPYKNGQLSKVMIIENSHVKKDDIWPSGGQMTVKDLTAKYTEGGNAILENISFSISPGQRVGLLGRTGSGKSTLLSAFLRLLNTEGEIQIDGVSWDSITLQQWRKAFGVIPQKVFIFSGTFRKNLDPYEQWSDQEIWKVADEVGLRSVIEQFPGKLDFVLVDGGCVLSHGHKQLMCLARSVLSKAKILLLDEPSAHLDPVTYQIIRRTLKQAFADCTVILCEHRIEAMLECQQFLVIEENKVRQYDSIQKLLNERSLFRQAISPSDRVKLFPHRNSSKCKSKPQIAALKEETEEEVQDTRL

TECC24 AUC vs. DMSO (@3 μM) | SMILES
B (“B” refers to AUC between 2-5) | Cc1cccc(C)c1-c1nc(NS(=O)(=O)c2ccccc2)cnc1-c1cccc([C@@H]2CC[C@H](OC(F)(F)F)C2)c1 (single isomer, unassigned) [Example 6a]
A (“A “refers to AUC > 5) | O=S(=O)(Nc1ncc(-c2cccc([C@@H]3CC[C@@H](OC(F)(F)F)C3)c2)c(-c2ccccc2C(F)(F)F)n1)c1ccccc1 (single isomer, unassigned) [Example 28b]
C (“C” refers to AUC < 2) | CC(C)(C)COc1cc(-c2ccc(NS(=O)(=O)c3cccc(N)c3)nc2-c2ccc(C(F)(F)F)cc2)ccc1Cl [Example 17, 3-amino-N-(5-(4-chloro-3-(neopentyloxy)phenyl)-6-(4-(trifluoromethyl)phenyl)pyridin-2-yl)benzenesulfonamide]
C (“C” refers to AUC < 2) | CC(C)c1ccccc1-c1nc(NS(=O)(=O)c2ccccc2)cnc1-c1cccc([C@@H]2CC[C@@H](OC(F)(F)F)C2)c1 (single isomer, unassigned) [Example 9b]
B (“B” refers to AUC between 2-5) | CC(C)(C)COc1cc(-c2ccc(NS(=O)(=O)c3cccc(Cl)n3)nc2-c2ccc(C(F)(F)F)cc2)ccc1Cl [Example 12, 6-chloro-N-(5-(4-chloro-3-(neopentyloxy)phenyl)-6-(4-(trifluoromethyl)phenyl)pyridin-2-yl)pyridine-2-sulfonamide]
A (“A “refers to AUC > 5) | Cc1cccc(C)c1-c1nc(NS(=O)(=O)c2ccccc2)cnc1-c1ccc(F)c(OCC(C)(C)C(F)(F)F)c1 [Example 4, N-(6-(2,6-dimethylphenyl)-5-(4-fluoro-3-(3,3,3-trifluoro-2,2-dimethylpropoxy)phenyl)pyrazin-2-yl)benzenesulfonamide]
A (“A “refers to AUC > 5) | O=S(=O)(Nc1ncc(-c2cccc([C@H]3CC[C@@H](OC(F)(F)F)C3)c2)c(-c2ccccc2C(F)(F)F)n1)c1ccccc1 (single isomer, unassigned) [Example 27b]
A (“A “refers to AUC > 5) | CC(C)c1cc(Cl)ccc1-c1nc(NS(=O)(=O)c2ccccc2)ccc1-c1cccc(OC(F)(F)F)c1 [Example 19, N-(6-(4-chloro-2-isopropylphenyl)-5-(3-(trifluoromethoxy)phenyl)pyridin-2-yl)benzenesulfonamide]
C (“C” refers to AUC < 2) | CC(C)n1nccc1-c1nc(NS(=O)(=O)c2ccccc2)cnc1-c1cccc([C@@H]2CC[C@@H](OC(F)(F)F)C2)c1 (single isomer, unassigned) [Example 10b]
C (“C” refers to AUC < 2) | CC(C)(C)COc1cc(-c2cnc(NS(=O)(=O)c3cccc(NS(C)(=O)=O)c3)nc2-c2ccc(C(F)(F)F)cc2)ccc1Cl [Example 24, N-(5-(4-chloro-3-(neopentyloxy)phenyl)-4-(4-(trifluoromethyl)phenyl)pyrimidin-2-yl)-3-(methylsulfonamido)benzenesulfonamide]
A (“A “refers to AUC > 5) | Cc1cccc(C)c1-c1nc(NS(=O)(=O)c2cccc(NC3CC(C)(O)C3)c2)ccc1-c1cccc(OCC(C)(C)C(F)(F)F)c1 (centres unmarked) [Example 20]
